# Data taken from US20030083469A1, “Allosteric control of nuclear hormone receptors” (The Salk Institute for Biological Studies, priority 1995, published 2003).
# How the values were obtained:
# RAR-RXR heterodimers = molecular target: T1, RAR-RXR heterodimers (Homo sapiens, UniProt P10276+P19793); experiment: Transient transfection analysis of RAR-RXR heterodimers (TK-LUC reporter, CV-1 cells); assay type: cell-based
# T1 construct: transient transfection analysis of full-length Nurrl and/or RXR; expressed in transfected cells; host or cells: CV-1
# T1 sequence (P10276 1-462): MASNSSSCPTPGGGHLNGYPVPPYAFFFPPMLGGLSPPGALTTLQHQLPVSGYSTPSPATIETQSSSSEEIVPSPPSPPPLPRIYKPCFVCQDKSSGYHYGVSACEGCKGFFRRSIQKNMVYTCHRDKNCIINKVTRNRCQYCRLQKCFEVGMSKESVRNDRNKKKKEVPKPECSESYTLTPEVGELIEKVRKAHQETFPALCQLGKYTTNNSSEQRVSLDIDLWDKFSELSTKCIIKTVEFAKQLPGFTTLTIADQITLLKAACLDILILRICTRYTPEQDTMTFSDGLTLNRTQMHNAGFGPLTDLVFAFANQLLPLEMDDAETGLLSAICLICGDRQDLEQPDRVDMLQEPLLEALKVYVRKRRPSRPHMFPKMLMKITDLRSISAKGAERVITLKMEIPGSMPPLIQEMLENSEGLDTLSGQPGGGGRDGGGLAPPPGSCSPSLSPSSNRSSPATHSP
# T1 sequence (P19793 1-462): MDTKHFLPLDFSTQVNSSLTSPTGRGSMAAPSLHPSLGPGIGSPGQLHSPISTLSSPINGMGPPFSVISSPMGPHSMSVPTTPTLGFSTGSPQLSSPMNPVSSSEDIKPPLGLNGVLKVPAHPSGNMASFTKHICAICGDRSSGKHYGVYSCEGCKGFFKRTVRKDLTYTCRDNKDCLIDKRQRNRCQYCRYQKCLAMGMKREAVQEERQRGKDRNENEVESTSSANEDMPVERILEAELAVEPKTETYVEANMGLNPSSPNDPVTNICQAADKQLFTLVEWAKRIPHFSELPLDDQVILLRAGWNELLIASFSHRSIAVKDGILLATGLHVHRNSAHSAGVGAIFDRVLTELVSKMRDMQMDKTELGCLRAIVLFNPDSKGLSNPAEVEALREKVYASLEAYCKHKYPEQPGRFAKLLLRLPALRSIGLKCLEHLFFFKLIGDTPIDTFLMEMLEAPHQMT
# Procedure: One day prior to transfection, cells were plated to 50-80% confluence using phenol-red free DMEM-FBS. Cells were transfected by lipofection using N-{2-(2,3)-dioleoyloxy)propyl-N,N,N-trimethyl ammonium methyl sulfate} according to the manufacturer's instructions (DOTAP, Boehringer Mannheim).
# In the right panel of FIG. 2, cells were transfected with HRE×1 TK-LUC (300 ng/10^5 cells), CMX-hRARα (50 ng/10^5 cells) CMX-hRXRα (50 ng/10^5 cells) and CMX-βgal (500 ng/10^5 cells) . […] Normalized luciferase activity was determined and plotted as fold-activation relative to untreated cells.
# GST-RXR/RAR heterodimers = molecular target: T2, GST-RXR/RAR heterodimers (Homo sapiens, UniProt P10276+P19793); experiment: Ligand binding assay with GST-RXR/RAR heterodimers
# T2 sequence (P19793 1-462): T1 sequence (P19793 1-462)
# T2 sequence (P10276 1-462): T1 sequence (P10276 1-462)
# RXR-T3R heterodimer = molecular target: T3, RXR-T3R heterodimer (Homo sapiens, UniProt P19793); experiment: Ligand binding assay with RXR-T3R heterodimer; set-up: species or system human GST-hRXRα, chicken T3Rα1
# T3 construct: made in house
# T3 sequence (P19793 1-462): T1 sequence (P19793 1-462)
# T3 sequence (P04625 1-408 partner): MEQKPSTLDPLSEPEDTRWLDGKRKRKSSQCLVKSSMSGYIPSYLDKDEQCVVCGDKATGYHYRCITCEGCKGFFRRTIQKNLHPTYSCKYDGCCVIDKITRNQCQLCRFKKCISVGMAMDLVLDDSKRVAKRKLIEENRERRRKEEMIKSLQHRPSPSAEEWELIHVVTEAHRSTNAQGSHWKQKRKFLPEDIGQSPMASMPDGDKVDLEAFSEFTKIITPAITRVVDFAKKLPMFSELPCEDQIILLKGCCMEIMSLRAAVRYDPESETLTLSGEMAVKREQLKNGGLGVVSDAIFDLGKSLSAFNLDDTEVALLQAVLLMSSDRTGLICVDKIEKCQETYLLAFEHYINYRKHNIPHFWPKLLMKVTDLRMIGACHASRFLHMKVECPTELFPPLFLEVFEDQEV
# [1] = molecular target: T4, GAL chimera containing the LBD of VDR + RXR LBD (Homo sapiens, UniProt P19793); experiment: Transient transfection of GAL-VDR LBD chimera with RXR LBD; assay type: cell-based; settings: 100 nM LG69
# T4 construct: or the human RXRα LBD (Glu 203 -Thr 462); expressed in transfected cells; host or cells: CV-1
# T4 sequence (P19793 203-462): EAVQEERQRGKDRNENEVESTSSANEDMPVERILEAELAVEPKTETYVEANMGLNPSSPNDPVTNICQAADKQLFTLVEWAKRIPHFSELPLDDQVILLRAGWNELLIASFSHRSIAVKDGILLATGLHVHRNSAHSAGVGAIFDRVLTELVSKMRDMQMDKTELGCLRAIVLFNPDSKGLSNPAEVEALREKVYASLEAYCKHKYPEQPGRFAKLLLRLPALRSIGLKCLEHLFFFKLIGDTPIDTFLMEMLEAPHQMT
# Procedure: (§1) CV-1 cells were grown in Dulbecco's Modified Eagle's medium supplemented with 10% resin-charcoal stripped (Samuels et al., Endocrinology 105:80-85 (1979)) fetal bovine serum, 50 U/ml penicillin G and 50 μg/ml streptomycin sulfate (DMEM-FBS) at 37° C. in 5% CO2. One day prior to transfection, cells were plated to 50-80% confluence using phenol-red free DMEM-FBS. Cells were transfected by lipofection using N-{2-(2,3)-dioleoyloxy)propyl-N,N,N-trimethyl ammonium methyl sulfate} according to the manufacturer's instructions (DOTAP, Boehringer Mannheim). […] Cells were harvested and assayed for luciferase and β-galactosidase activity. All points were performed in triplicate in each experiment and varied by less than 10%. Each experiment was repeated three or more times with similar results.
# (§2) Since RXR serves as a silent partner in the T3R and RAR pathways, it was next investigated whether RXR could serve as an active component in other complexes. To search for such complexes, the LBD of a number of nuclear receptors were fused to the GAL4 DBD, and tested to determine whether the RXR LBD could confer LG69 responsiveness upon these GAL-LBD chimeras. […] Normalized luciferase activity was determined and plotted as fold-activation relative to untreated cells.
# GAL-RAR + RXR LBD = molecular target: T5, GAL-RAR + RXR LBD (Homo sapiens, UniProt P19793); experiment: Transient transfection of GAL-RAR chimera with RXR LBD; assay type: cell-based; settings: 100 nM LG69
# T5 construct: or the human RXRα LBD (Glu 203 -Thr 462); expressed in transfected cells; host or cells: CV-1
# T5 sequence (P19793 203-462): T4 sequence (P19793 203-462)
# Procedure: as §1, §2
smiles,measurement,setting,value
"CC=C(c1ccc(C(=O)O)cc1)c1cc2c(cc1C)C(C)(C)CCC2(C)C [LG69, 4-{1-(3,5,5,8,8-pentamethyl-5,6,7,8-tetrahydro-2-napthalenyl)-1-propenyl}benzoic acid]",transcriptional activity with Am580+LG69 over that seen with AM580 alone,"RAR-RXR heterodimers; 50 nM Am580+100 nM LG69, full-length receptors",increased transcriptional activity
same,responsiveness of transfected cells to ligand (luciferase fold-activation),"RAR-RXR heterodimers; CV-1 cells transfected with RARα and RXRα, 50 nM Am580 or 100 nM LG69",unresponsive
same,competition of [3H] 9-cis RA binding by addition of both Am580 and LG69,"GST-RXR/RAR heterodimers; 50 nM [3H] 9-cis RA, 2 μM Am580 + 2 μM LG69",Nearly complete competition
same,decrease in the amount of [3H] LG69 bound to GST-RXR on addition of RAR,"GST-RXR/RAR heterodimers; 50 nM [3H] LG69, 500 ng hRARα",< 85%
same,change in [3H] LG69 binding,RXR-T3R heterodimer; T3R with 1 μM T3 added,strongly diminished
same,change in [3H] LG69 binding,RXR-T3R heterodimer; unliganded T3R,modest reduction
same,LG69 inducibility,[1],not observed
same,LG69 responsiveness,GAL-RAR + RXR LBD,not seen
